Assay results published in ChEMBL document CHEMBL4138122, “Azaphenothiazines - promising phenothiazine derivatives. An insight into nomenclature, synthesis, structure elucidation and biological properties” (Eur J Med Chem, 2017).
pIC50: −log10 of the molar value. In brackets after ≈: the same amount, converted by molar mass.

Assays:
HFF-1 = assay: Cytotoxicity against human HFF1 cells incubated for 72 hrs by WST1 dye based assay; type: cell-based; details: HFF-1, 72 h
C32 = assay: Cytotoxicity against human C32 cells incubated for 72 hrs by WST1 dye based assay; type: functional, cell-based; details: C32, 72 h
[1] = Inhibition of lipoxygenase in rat peritoneal cavity resident cells
Rattus norvegicus [2] = assay: Antiinflammatory activity in rat assessed as inhibition of yeast-induced foot edema at 60 mg/kg; type: functional
[3] = Toxicity in rat assessed as survival rate at 50 mg/kg; type: organism-based; details: in vivo
Aspergillus niger [4] = assay: Antifungal activity against Aspergillus niger by CLSI protocol based method; type: functional
Candida albicans = assay: microbe, parasite or virus in culture
Description: Antimicrobial activity against Candida albicans

Aspergillus niger [5] = assay: Antifungal activity against Aspergillus niger; type: functional
[6] = Antioxidant activity assessed as H2O2 scavenging activity; type: functional; details: dose or concentration not given here
Rattus norvegicus [7] = organism: Rattus norvegicus; assay: Antioxidant activity in albino rat assessed as inhibition of catalase induced H2O2 production; type: functional
Mus musculus [8] = organism: Mus musculus; assay: Antioxidant activity in Swiss albino mouse assessed as LPO level per mg tissue; type: functional
[9] = Antioxidant activity assessed as DPPH radical scavenging activity; type: functional; details: dose or concentration not given here
Mus musculus [10] = organism: Mus musculus; assay: Antioxidant activity in Swiss albino mouse assessed as GSH level per mg tissue; type: functional
[11] = Inhibition of LTB4 formation in rat polymorphonuclear leukocytes preincubated for 2 mins followed by A-23187 addition after 4 mins; type: functional, cell-based
Rattus norvegicus [12] = assay: Anti-asthmatic activity in rat assessed as inhibition of egg albumin-induced duration of symptoms of dyspnoea at 5 mg/kg, po administered 90 mins prior to dyspnoea induction; type: functional
Rattus norvegicus [13] = assay: Anti-asthmatic activity in rat assessed as inhibition of egg albumin-induced duration of symptoms of dyspnoea at 3 mg/kg, po administered 90 mins prior to dyspnoea induction; type: functional
[14] = test system: Human immunodeficiency virus; assay: Antiviral activity against HIV infected in human MT4 cells; type: functional, organism-based; details: Human immunodeficiency virus 1, MT4
HOP-92 = assay: Cytotoxicity against human HOP92 cells assessed as cell growth inhibition after 48 hrs by SRB assay; type: functional, cell-based; details: HOP-92, 48 h
MCF7 [15] = assay: Cytotoxicity against human MCF7 cells assessed as cell growth inhibition after 48 hrs by SRB assay; type: functional, cell-based; details: MCF7, 48 h
Lipoxygenase = Lipoxygenase (Glycine max, UniProt Q39829); assay: Inhibition of soybean lipoxygenase
UO-31 [16] = assay: Cytotoxicity against human UO31 cells assessed as cell growth inhibition at 3.2 ug/ml after 48 hrs by SRB assay; type: functional; details: UO-31, 48 h, read-out: GI
UO-31 [17] = assay: Growth inhibition of human UO31 cells at 10 uM; type: functional; details: read-out: GI
MCF7 [18] = assay: Growth inhibition of human MCF7 cells at 10 uM; type: functional; details: read-out: GI
Mus musculus [19] = assay: Anti-inflammatory activity in IL1-induced paw inflammation Balb/c mouse model assessed as inhibition of neutrophil migration at 10 mg/kg, po, pretreated for 30 mins followed by IL1 challenge measured after 2 hrs by spectrophotometric method; type: functional
HUVEC [20] = assay: Anti-inflammatory activity in human HUVEC cells assessed as reduction in TNFalpha-induced E-selectin expression after 4 hrs by ELISA; type: functional, cell-based
[21] = molecular target: Vascular cell adhesion protein 1 (Homo sapiens, UniProt P19320); assay: Inhibition of VCAM1 (unknown origin)
[22] = molecular target: Intercellular adhesion molecule 1 (Homo sapiens, UniProt P05362); assay: Inhibition of ICAM1 (unknown origin)
HUVEC [23] = assay: Anti-inflammatory activity in human HUVEC cells assessed as reduction in TNFalpha-induced VCAM expression after 4 hrs by ELISA; type: functional, cell-based
M14 = assay: Cytotoxicity against human M14 cells assessed as cell growth inhibition after 48 hrs by SRB assay; type: functional, cell-based; details: M14, 48 h
OVCAR-8 = assay: Cytotoxicity against human OVCAR8 cells assessed as cell growth inhibition after 48 hrs by SRB assay; type: functional, cell-based; details: OVCAR-8, 48 h
ACHN = assay: Cytotoxicity against human ACHN cells assessed as cell growth inhibition after 48 hrs by SRB assay; type: functional, cell-based
786-0 = assay: Cytotoxicity against human 786-O cells assessed as cell growth inhibition after 48 hrs by SRB assay; type: functional, cell-based; details: 786-0, 48 h
HL-60 = assay: Cytotoxicity against human HL60 cells assessed as cell growth inhibition after 48 hrs by SRB assay; type: functional, cell-based; details: HL-60, 48 h
SF-539 = assay: Cytotoxicity against human SF539 cells assessed as cell growth inhibition after 48 hrs by SRB assay; type: functional, cell-based; details: SF-539, 48 h
PC-3 = assay: Cytotoxicity against human PC3 cells assessed as cell growth inhibition after 48 hrs by SRB assay; type: functional, cell-based; details: PC-3, 48 h
PBMC = assay: Inhibition of anti-CD3 induced human PBMC proliferation at 1 ug/ml; type: functional
RXF 393 = assay: Cytotoxicity against human RXF393 cells assessed as cell growth inhibition after 48 hrs by SRB assay; type: functional, cell-based; details: RXF 393, 48 h
Hs-578T = assay: Cytotoxicity against human Hs578T cells assessed as cell growth inhibition after 48 hrs by SRB assay; type: functional, cell-based
Liver = assay: Antioxidant activity in rat liver microsomal membranes assessed as inhibition of Fe(2+)/ascorbate-induced lipid peroxidation; type: functional, microsomes, microsome
SNB-19 = assay: Cytotoxicity against human SNB19 cells assessed as cell growth inhibition after 48 hrs by SRB assay; type: functional, cell-based; details: SNB-19, 48 h
HCT-116 = assay: Cytotoxicity against human HCT116 cells assessed as cell growth inhibition after 48 hrs by SRB assay; type: functional, cell-based; details: HCT-116, 48 h
HOP-62 = assay: Cytotoxicity against human HOP62 cells assessed as cell growth inhibition after 48 hrs by SRB assay; type: functional, cell-based; details: HOP-62, 48 h
COLO 205 = assay: Cytotoxicity against human COLO205 cells assessed as cell growth inhibition after 48 hrs by SRB assay; type: functional, cell-based; details: COLO 205, 48 h
UO-31 [24] = assay: Cytotoxicity against human UO31 cells assessed as cell growth inhibition at 2.1 ug/ml after 48 hrs by SRB assay; type: functional; details: UO-31, 48 h, read-out: GI
EKVX = assay: Cytotoxicity against human EKVX cells assessed as cell growth inhibition at 2.1 ug/ml after 48 hrs by SRB assay; type: functional, cell-based; details: read-out: GI
Staphylococcus aureus = assay: Antibacterial activity against Staphylococcus aureus; type: functional; details: Staphylococcus aureus; read-out: MIC
Bacillus cereus = assay: Antibacterial activity against Bacillus cereus; type: functional, organism-based
Bacillus subtilis = assay: Antibacterial activity against Bacillus subtilis; type: functional; details: Bacillus subtilis
MCF7 [25] = assay: Cytotoxicity against human MCF7 cells incubated for 72 hrs by WST1 dye based assay; type: functional, cell-based; details: MCF7, 72 h
[26] = test system: Mycobacterium tuberculosis; assay: Antitubercular activity against Mycobacterium tuberculosis H37Rv; type: functional

Intercellular adhesion molecule 1, sequence (P05362 whole entry): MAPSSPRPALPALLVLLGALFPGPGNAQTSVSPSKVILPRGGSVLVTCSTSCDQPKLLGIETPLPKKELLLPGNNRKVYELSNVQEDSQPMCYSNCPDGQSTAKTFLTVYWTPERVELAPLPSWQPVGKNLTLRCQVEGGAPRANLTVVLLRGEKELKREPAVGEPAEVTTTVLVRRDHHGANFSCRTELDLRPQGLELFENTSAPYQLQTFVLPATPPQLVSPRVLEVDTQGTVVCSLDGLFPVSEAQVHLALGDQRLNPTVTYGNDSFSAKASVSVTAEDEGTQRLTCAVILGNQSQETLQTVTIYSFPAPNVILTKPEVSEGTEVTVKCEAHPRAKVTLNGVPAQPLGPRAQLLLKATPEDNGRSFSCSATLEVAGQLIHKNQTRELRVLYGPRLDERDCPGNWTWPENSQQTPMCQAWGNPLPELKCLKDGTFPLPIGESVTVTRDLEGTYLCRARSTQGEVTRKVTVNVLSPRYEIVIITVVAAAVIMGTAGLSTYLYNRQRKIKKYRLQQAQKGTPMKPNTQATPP
Vascular cell adhesion protein 1, sequence (P19320 whole entry): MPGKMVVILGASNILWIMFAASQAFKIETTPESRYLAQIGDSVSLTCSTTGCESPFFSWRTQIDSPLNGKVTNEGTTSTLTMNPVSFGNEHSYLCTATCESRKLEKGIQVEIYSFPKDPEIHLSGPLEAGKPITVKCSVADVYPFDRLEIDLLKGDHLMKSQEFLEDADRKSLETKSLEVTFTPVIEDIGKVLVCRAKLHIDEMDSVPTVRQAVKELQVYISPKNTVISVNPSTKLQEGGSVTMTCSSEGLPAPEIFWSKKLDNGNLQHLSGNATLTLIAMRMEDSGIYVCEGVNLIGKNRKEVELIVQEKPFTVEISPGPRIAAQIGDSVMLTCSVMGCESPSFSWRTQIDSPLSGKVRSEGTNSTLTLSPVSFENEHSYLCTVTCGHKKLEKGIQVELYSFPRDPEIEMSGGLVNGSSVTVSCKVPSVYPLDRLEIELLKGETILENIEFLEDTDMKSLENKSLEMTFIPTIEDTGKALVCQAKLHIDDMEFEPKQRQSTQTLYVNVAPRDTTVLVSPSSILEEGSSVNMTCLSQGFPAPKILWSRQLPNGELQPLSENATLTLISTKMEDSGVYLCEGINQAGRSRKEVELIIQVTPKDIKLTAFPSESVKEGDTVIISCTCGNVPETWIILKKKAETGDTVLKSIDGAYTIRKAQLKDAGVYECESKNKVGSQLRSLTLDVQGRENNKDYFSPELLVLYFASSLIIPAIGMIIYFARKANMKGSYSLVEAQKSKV

Structure (SMILES): CCN(CC)CCN1c2cccnc2Sc2cccnc21
- IC50 (HFF-1): ≥ 50 µg/mL
- IC50 (C32): 6.6 µg/mL (≈ 22 µM)

Structure (SMILES): Cn1c(=O)nc2sc3ccccc3nc-2c1=O
- pIC50 [1]: 5.85
- inhibition in vivo at 60 mg/kg (Rattus norvegicus [2]): 69%
- survival [3]: 69%

Structure (SMILES): CC(=O)N1CCN(c2ccc(OCC3COC(Cn4ccnc4)(c4ccc(Cl)cc4Cl)O3)cc2)CC1 (centres undefined) [KETOCONAZOLE]
- MIC (Aspergillus niger [4]): 136 µg/mL (≈ 255 µM)
- MIC (Candida albicans): 62.2 µg/mL (≈ 117 µM)
- MIC (Aspergillus niger [5]): 136 µg/mL (≈ 255 µM)

Structure (SMILES): O=C1C(Cl)=C2Sc3cccnc3NC2c2ccccc21 (centres undefined)
- inhibition [6]: < 100%
- inhibition (INH) (Rattus norvegicus [7]): 77.9%

Structure (SMILES): COc1cccc2c3c(c4nc5ccccc5c(=O)n4c12)Sc1cc(C)ccc1N3
- Activity (Mus musculus [8]): 4.5 to 4.6 nM
- inhibition [9]: 45.6 to 47.3%
- Activity (Mus musculus [10]): 6.8 nM

Structure (SMILES): CN1c2ccc(O)c(Cl)c2Sc2nccnc21
- IC50 [11]: 0.05 to 1 µg/mL (≈ 0.188 to 3.76 µM)
- inhibition in vivo at 5 mg/kg (Rattus norvegicus [12]): 47%
- inhibition in vivo at 3 mg/kg (Rattus norvegicus [13]): 43%

Structure (SMILES): CCOCn1c(=O)[nH]c2c(c1=O)Nc1ccc(Cl)cc1S2
- pIC50 [14]: 5.37

Structure (SMILES): CN(C)CCCN1c2nc3ccccc3cc2Sc2cc3ccccc3nc21
- pIC50 (HOP-92): ≥ 6.00
- pIC50 (MCF7 [15]): ≥ 6.00

Structure (SMILES): CCCc1nc(N2CCN(C)CC2)nc2c1Nc1ccccc1S2
- pIC50 (Lipoxygenase): 5.05

Structure (SMILES): COc1ccc2c(c1)[S+]([O-])c1nccnc1N2C (centres undefined)
- inhibition in vivo at 3 mg/kg (Rattus norvegicus [13]): 12.5%

Structure (SMILES): O=C1O[C@H]([C@@H](O)CO)C(O)=C1O [ASCORBIC ACID]
- inhibition (INH) (Rattus norvegicus [7]): 71.9%

Structure (SMILES): O=[N+]([O-])c1ccc(N2c3ccncc3Sc3ccncc32)cc1
- inhibition of growth at 3.2 µg/mL (UO-31 [16]): 44%

Structure (SMILES): Clc1ccc(N2c3nc4ccccc4cc3Sc3cc4ccccc4nc32)cc1
- inhibition of growth at 10 µM (UO-31 [17]): 57 to 73%
- inhibition of growth at 10 µM (MCF7 [18]): 63%

Structure (SMILES): CN(C)S(=O)(=O)NC1CCN(Cc2ccc3c(c2)Nc2nccnc2S3)CC1
- inhibition in vivo at 10 mg/kg (Mus musculus [19]): 83.4 to 89.7%
- pIC50 (HUVEC [20]): 6.26
- pIC50 [21]: 5.35
- pIC50 [22]: 5.85 to 6.57
- pIC50 (HUVEC [23]): 6.44

Structure (SMILES): COc1cccc2c1Nc1c(c3nc4ccccc4c(=O)n3c3c(OC)cccc13)S2
- Activity (Mus musculus [8]): 4.5 to 4.6 nM
- inhibition [9]: 45.6 to 47.3%
- Activity (Mus musculus [10]): 6.8 nM

Structure (SMILES): c1cc2c(cn1)Nc1ccncc1S2
- IC50 (M14): 6.5 µg/mL (≈ 32.3 µM)
- IC50 (OVCAR-8): 7.1 µg/mL (≈ 35.3 µM)
- IC50 (ACHN): 5.4 µg/mL (≈ 26.8 µM)
- IC50 (786-0): 3.9 µg/mL (≈ 19.4 µM)
- IC50 (HL-60): 4.1 µg/mL (≈ 20.4 µM)
- IC50 (SF-539): 6.8 µg/mL (≈ 33.8 µM)
- IC50 (PC-3): 8.4 µg/mL (≈ 41.7 µM)
- IC50 (HOP-92): 1.7 µg/mL
- inhibition at 1 µg/mL (PBMC): 72%
- IC50 (RXF 393): 3.1 µg/mL (≈ 15.4 µM)
- IC50 (Hs-578T): 5.9 µg/mL (≈ 29.3 µM)
- pIC50 (Liver): 4.19
- IC50 (SNB-19): 6.8 µg/mL (≈ 33.8 µM)
- IC50 (HCT-116): 3.6 µg/mL (≈ 17.9 µM)
- IC50 (HOP-62): 0.3 µg/mL (≈ 1.49 µM)
- IC50 (COLO 205): 2.4 µg/mL (≈ 11.9 µM)

Structure (SMILES): CN1c2ccncc2Sc2ccncc21
- inhibition of growth at 2.1 µg/mL (UO-31 [24]): 60%
- inhibition of growth at 2.1 µg/mL (EKVX): 51%

Structure (SMILES): CCSc1ncc2c(n1)N=c1c(c3c(c4ccccc14)=Nc1nc(SCC)nc(O)c1S3)S2
- MIC (Staphylococcus aureus): 39.8 µg/mL (≈ 78.2 µM)
- IC50 (Bacillus cereus): 50.5 µg/mL (≈ 99.3 µM)
- MIC (Bacillus subtilis): 63.3 µg/mL (≈ 124 µM)
- MIC (Aspergillus niger [5]): 60.3 µg/mL (≈ 119 µM)

Structure (SMILES): c1cnc2c(c1)Nc1ncccc1S2
- IC50 (HFF-1): ≥ 50 µg/mL
- IC50 (MCF7 [25]): 4.8 µg/mL (≈ 23.9 µM)
- IC50 (C32): 7.5 µg/mL (≈ 37.3 µM)

Structure (SMILES): O=c1[nH]c2ccc(Cl)cc2c2c1Sc1cc(Cl)ccc1N2
- MIC [26]: > 6.25 µg/mL
